In patent publication US6274715A, “Tricyclic erythromycin derivatives” (priority 1997, dated 2001):
In brackets after ≈: the same amount, converted by molar mass. Read-outs that look alike come from different tables or passages of the source.

Columns and labels:
Format in all cases: cell-based
PSEUDOMONAS CEPACIA 296I = assay: In vitro antibacterial activity, MIC, BHI agar dilution; details: P. cepacia 296I, unit assumed
[1] = tested on: PSEUDOMONAS AERUGINOSA DPHD-2862; assay: as above; details: P. aeruginosa DPHD-2862, unit assumed
[2] = tested on: STREPTOCOCCUS PYOGENES 930; assay: as above; details: S. pyogenes 930, unit assumed
ESCHERICHIA COLI H560 = assay: as above
ESCHERICHIA COLI JUHL = details: E. coli JUHL, BHI agar, unit assumed
[3] = tested on: PSEUDOMONAS AERUGINOSA BMH10; assay: In vitro antibacterial activity, MIC, BHI agar dilution
[4] = tested on: STAPHYLOCOCCUS AUREUS A-5278; assay: as above; details: S. aureus A-5278, unit assumed
[5] = tested on: KLEBSIELLA PNEUMONIAE ATCC 8045; assay: as above; details: K. pneumoniae ATCC 8045, unit assumed
[6] = tested on: PSEUDOMONAS AERUGINOSA K799/61; assay: as above
[7] = tested on: STAPHYLOCOCCUS EPIDERMIDIS 3519; details: S. epidermidis 3519, BHI agar, unit assumed
STR[…] 508 = assay: In vitro antibacterial activity, MIC, BHI agar dilution; details: S. agalactiae CMX 508, unit assumed
Description: (§1) Representative compounds of the present invention were assayed in vitro for antibacterial activity as follows: Twelve petri dishes containing successive aqueous dilutions of the test compound mixed with 10 mL of sterilized Brain Heart Infusion (BHI) agar (Difco 0418-01-5) were prepared. Each plate was inoculated with 1:100 (or 1:10 for slow-growing strains, such as Micrococcus and Streptococcus) dilutions of up to 32 different microorganisms, using a Steers replicator block. The inoculated plates were incubated at 35-37° C. for 20 to 24 hours. In addition, a control plate, using BHI agar containing no test compound, was prepared and incubated at the beginning and end of each test.
(§2) An additional plate containing a compound having known susceptibility patterns for the organisms being tested and belonging to the same antibiotic class as the test compound was also prepared and incubated as a further control, as well as to provide test-to-test comparability. Erythromycin A was used for this purpose.
(§3) After incubation, each plate was visually inspected. The minimum inhibitory concentration (MIC) was defmed as the lowest concentration of drug yielding no growth, a slight haze, or sparsely isolated colonies on the inoculum spot as compared to the growth control.

EN[…] ATCC 8043 = assay: as above; details: E. faecium ATCC 8043, unit assumed
Description: as §1, §2, §3

M[…] ATCC 9341 = assay: as above; details: M. luteus ATCC 9341, unit assumed
Description: as §1, §2, §3

[8] = tested on: MYCOBACTERIUM SMEGMATIS ATCC 114; assay: as above; details: M. smegmatis ATCC 114, unit assumed
[9] = tested on: STAPHYLOCOCCUS AUREUS NCTC10649M; assay: as above; details: S. aureus NCTC10649M, unit assumed
[10] = tested on: STREPTOCOCCUS BOVIS A-5169; assay: as above; details: S. bovis A-5169, unit assumed
[11] = tested on: PSEUDOMONAS AERUGINOSA 5007; assay: as above; details: P. aeruginosa 5007, unit assumed
[12] = tested on: STAPHYLOCOCCUS AUREUS CMX 642A; assay: as above; details: S. aureus CMX 642A, unit assumed
[13] = tested on: STAPHYLOCOCCUS AUREUS 1775; assay: as above; details: S. aureus 1775, unit assumed
[14] = tested on: PSEUDOMONAS AERUGINOSA DPHD-5263; assay: as above; details: P. aeruginosa DPHD-5263, unit assumed
[15] = tested on: STAPHYLOCOCCUS AUREUS ATCC 6538P; assay: as above; details: S. aureus ATCC 6538P, 35-37° C., 20 to 24 hours, listed as Ex 35, unit assumed
ESCHERICHIA COLI KNK 437 = details: E. coli KNK 437; BHI agar; unit assumed
CANDIDA ALBICANS CCH 442 = assay: In vitro antibacterial activity, MIC, BHI agar dilution; details: C. albicans CCH 442, unit assumed
[16] = tested on: STREPTOCOCCUS PYOGENES PIU 2548; assay: as above
[17] = tested on: ENTEROBACTER AEROGENES ATCC 13048; assay: as above
[18] = tested on: PROVIDENCIA STUARTII CMX 640; details: P. stuartii CMX 640; BHI agar; unit assumed
[19] = tested on: PSEUDOMONAS AERUGINOSA K799/WT; assay: In vitro antibacterial activity, MIC, BHI agar dilution; details: P. aeruginosa K799/WT
[20] = tested on: STAPHYLOCOCCUS AUREUS CMX 553; assay: as above; details: S. aureus CMX 553, unit assumed
M[…] ATCC 4698 = assay: as above; details: M. luteus ATCC 4698, unit assumed
Description: as §1, §2, §3

ESCHERICHIA COLI SS = assay: as above; details: E. coli SS, unit assumed
ESCHERICHIA COLI DC-2 = assay: as above; details: E. coli DC-2, unit assumed
[21] = tested on: STREPTOCOCCUS PYOGENES EES61; assay: as above; details: S. pyogenes EES61, unit assumed

| Structure (SMILES) | MIC (PSEUDOMONAS CEPACIA 296I) | MIC [1] | MIC [2] | MIC [4] | MIC (STR[…] 508) | MIC (EN[…] ATCC 8043) | MIC (M[…] ATCC 9341) | MIC [8] | MIC [9] | MIC [10] | MIC [11] | MIC [12] | MIC [13] | MIC [14] | MIC (ESCHERICHIA COLI KNK 437) | MIC (CANDIDA ALBICANS CCH 442) | MIC [18] | further results |
| --- | --- | --- | --- | --- | --- | --- | --- | --- | --- | --- | --- | --- | --- | --- | --- | --- | --- | --- |
| CCC1OC(=O)C(C)C(=O)C(C)C(OC2OC(C)CC(N(C)C)C2O)C(C)(OC)CC(C)C2=NCC(CCc3ccccc3)N3C(=O)OC1(C)C3C2C (stereo not drawn) [Example 35] | 100 µg/mL (≈ 135 µM) | > 100 µg/mL | 50 µg/mL (≈ 67.4 µM) | > 100 µg/mL | 0.02 µg/mL (≈ 0.027 µM) | 0.2 µg/mL (≈ 0.27 µM) | 0.2 µg/mL (≈ 0.27 µM) | 0.39 µg/mL (≈ 0.526 µM) | 0.78 µg/mL (≈ 1.05 µM) | 0.01 µg/mL (≈ 0.0135 µM) | > 100 µg/mL | 0.78 µg/mL (≈ 1.05 µM) | > 100 µg/mL | > 100 µg/mL | 100 µg/mL (≈ 135 µM) | > 100 µg/mL | > 100 µg/mL | MIC (ESCHERICHIA COLI H560; E. coli H560, listed as Ex 35, unit assumed): 50 µg/mL (≈ 67.4 µM); MIC (ESCHERICHIA COLI JUHL; listed as Ex 35): > 100 µg/mL; MIC ([3]; P. aeruginosa BMH10, listed as Ex 35, unit assumed): > 100 µg/mL; MIC [5]: > 100 µg/mL; MIC ([6]; P. aeruginosa K799/61, listed as Ex 35, unit assumed): 3.1 µg/mL (≈ 4.18 µM); MIC ([7]; listed as Ex 35): 0.39 µg/mL (≈ 0.526 µM); MIC [15]: 0.39 µg/mL (≈ 0.526 µM); MIC ([16]; S. pyogenes PIU 2548, listed as Ex 35, unit assumed): 0.39 µg/mL (≈ 0.526 µM); MIC ([17]; E. aerogenes ATCC 13048, listed as Ex 35, unit assumed): 100 µg/mL (≈ 135 µM); MIC ([19]; listed as Ex 35, unit assumed): > 100 µg/mL |
| CC[C@H]1OC(=O)[C@H](C)C(=O)[C@H](C)[C@@H](O[C@@H]2O[C@H](C)C[C@H](N(C)C)[C@H]2O)[C@](C)(OC)C[C@@H](C)C2=NC3CN(CC)CC3N3C(=O)O[C@@]1(C)[C@H]3[C@H]2C (stereo partly drawn) [Example 115] | > 100 µg/mL | > 100 µg/mL | > 100 µg/mL | > 100 µg/mL | 0.05 µg/mL (≈ 0.0707 µM) | 0.1 µg/mL (≈ 0.141 µM) | 0.1 µg/mL (≈ 0.141 µM) | 12.5 µg/mL (≈ 17.7 µM) | 0.78 µg/mL (≈ 1.1 µM) | ≤ 0.005 µg/mL | > 100 µg/mL | 1.56 µg/mL (≈ 2.21 µM) | > 100 µg/mL | > 100 µg/mL | 25 µg/mL (≈ 35.4 µM) | > 100 µg/mL | > 100 µg/mL | MIC (ESCHERICHIA COLI H560; E. coli H560, unit assumed): 12.5 µg/mL (≈ 17.7 µM); MIC (ESCHERICHIA COLI JUHL): > 100 µg/mL; MIC ([3]; P. aeruginosa BMH10, unit assumed): > 100 µg/mL; MIC [20]: 1.56 µg/mL (≈ 2.21 µM); MIC ([6]; P. aeruginosa K799/61, unit assumed): 0.78 µg/mL (≈ 1.1 µM); MIC [7]: 1.56 µg/mL (≈ 2.21 µM); MIC (M[…] ATCC 4698): 0.39 µg/mL (≈ 0.552 µM); MIC (ESCHERICHIA COLI SS): 0.39 µg/mL (≈ 0.552 µM); MIC (ESCHERICHIA COLI DC-2): 50 µg/mL (≈ 70.7 µM); MIC ([16]; S. pyogenes PIU 2548, unit assumed): 0.78 µg/mL (≈ 1.1 µM); MIC ([17]; E. aerogenes ATCC 13048, unit assumed): 50 µg/mL (≈ 70.7 µM); MIC ([19]; unit assumed): > 100 µg/mL; MIC [21]: 0.05 µg/mL (≈ 0.0707 µM) |
